Experimental findings from patent US8101605B2, “SHIP1 modulators and methods related thereto” (Aquinox Pharmaceuticals Inc., priority 2009, dated 2012) are described below.

Test [1] concerns allergen-induced passive cutaneous anaphylaxis. Kind of test: Passive cutaneous anaphylaxis in rats. Format: in vivo. The note with it: oral gavage. The protocol: The activity of representative compounds on passive cutaneous anaphylaxis in rats was evaluated according to the procedures disclosed by Goose et al., Immunology 16, 749-760, 1969, which is incorporated herein by reference in its entirety. To induce a passive cutaneous anaphylaxis, rats underwent dorsal intradermal inoculation with 50 μL of anti-ovalbumin-IgE. Sixteen hours after inoculation, all rats were administered test compound by oral gavage (PO). Sixty minutes after oral administration, rats were given a tail vein injection of 5 mg Evan's blue and 1 mg ovalbumin. Sixty minutes following the ovalbumin injection, rats were euthanized using CO2 inhalation. Subsequently, skin edema was visualized, measured and scored. When tested in this assay, representative Compound.

The subject of test [2] is Akt phosphorylation in Molt-4 (PTEN−/SHIP1+) cells. Kind of test: Akt phosphorylation in IGF-1 stimulated Molt-4 lymphocytes (western blot). It counts as cell-based. The arrangement: key: +: inhibits Akt phosphorylation at 10 μM; −: no effect on Akt phosphorylation at 10 μM. The note with it: 10 μM; IGF-1 stimulation. The procedure: Jurkat (PTEN−/SHIP1−) or Molt-4 (PTEN−/SHIP1+) cells were starved in serum free RPMI for overnight. In a 15 mL conical tube, 2-3 million serum starved cells (1 million cells per mL) were treated with various concentrations of test compound (0.1, 1, or 10 μM final in 0.1% DMSO) for 30 min at 37° C. followed by stimulation with 100 ng/mL of IGF-1 for 1 hour at 37° C. After stimulation, cells were washed once with ice-cold DPBS and lysed with Lysis Buffer (20 mM Tris-HCl, pH 7.5, 140 mM NaCl, 1% NP-40, Complete Mini Protease Inhibitor Cocktail, 10 mM NaF, 1 mM Na3VO4, 1 mM β-glycerolphosphate) on ice for 30 min with vortexing every 10 min. Samples were then centrifuged at 13,000 rpm for 20 min, and supernatants were collected as total cell lysate samples. Protein concentration was determined using bicinchonic acid assay, and about 15 μg of total protein from each sample was loaded and separated on a 4-12% Tris-Glycine gel. After SDS-PAGE, proteins were transferred from the gel to a nitrocellulose membrane. The membrane was blocked in 5% BSA in PBS containing 0.1% Tween-20 (PBS-T) for 1 hour at room temperature before probing with primary antibodies for overnight at 4° C. The following antibodies were used: mouse anti-SHIP1 (1:500 dilution; Santa Cruz, Calif., USA), rabbit anti-phospho-Akt(Ser473) (1:1000 dilution; Cell Signaling Technologies, MA, USA), rabbit anti-Akt (1:1000; Cell Signaling Technologies, MA, USA), and rabbit anti-actin (1:2000; Cell Signaling Technologies, MA, USA). The membrane was then incubated with goat anti-rabbit or anti-mouse secondary antibodies (1:3000) for 1 hour at room temperature. Target proteins on the membrane were detected with ECL solution and exposed on a film.
Scoring in Table 3 is expressed as follows: + (inhibits Akt phosphorylation at 10 μM); − (no effect on Akt phosphorylation at 10 μM).
For orientation: A western blot detects proteins with antibodies after separation by electrophoresis.

The structures appear in SMILES notation.

In the case of `Cc1cc(O)cc2c1[C@]1(C)CC[C@H]3C(C)(C)CCC[C@]3(C)[C@H]1CO2` [Compound No. 6, (1R,10R,11S,16S)-1,3,11,15,15-pentamethyl-8-oxatetracyclo[8.8.0.0^2,7.0^11,16]octadeca-2,4,6-trien-5-ol], the “inhibition of allergen-induced passive cutaneous anaphylaxis” value is given as 14% in test [1] (30 mg/kg) and 29% in test [1] (100 mg/kg). Besides, the “Akt phosphorylation, Molt-4 (SHIP1+)” value in test [2] is on record as “+”.
The matching figures for `CC1(C)CCC[C@]2(C)[C@H]3CS(=O)(=O)c4cc(O)cc(O)c4[C@]3(C)CC[C@@H]12` [Compound No. 28, (1R,10R,11S,16S)-3,5-dihydroxy-1,11,15,15-tetramethyl-8-thiatetracyclo[8.8.0.0^2,7.0^11,16]octadeca-2,4,6-triene-8,8-dione]: 26%, 38% and “+”.
